Laboratory results reported in patent US20150366932A1, “METHODS FOR PRODUCING DIKETOPIPERAZINES AND COMPOSITIONS CONTAINING DIKETOPIPERAZINES” (AMPIO PHARMACEUTICALS, INC., priority 2013, published 2015).
“Also recorded” adds a separate entry of the source.

Experiments:
[1] = system: activated PBMC and T-lymphocytes; conditions: activated PBMC and T-lymphocytes in vitro; cited from earlier work
[2] = molecular target: neurokinin-1 receptor (Homo sapiens, UniProt P25103); conditions: cited from earlier work
neurokinin-1 receptor, sequence (P25103 whole entry): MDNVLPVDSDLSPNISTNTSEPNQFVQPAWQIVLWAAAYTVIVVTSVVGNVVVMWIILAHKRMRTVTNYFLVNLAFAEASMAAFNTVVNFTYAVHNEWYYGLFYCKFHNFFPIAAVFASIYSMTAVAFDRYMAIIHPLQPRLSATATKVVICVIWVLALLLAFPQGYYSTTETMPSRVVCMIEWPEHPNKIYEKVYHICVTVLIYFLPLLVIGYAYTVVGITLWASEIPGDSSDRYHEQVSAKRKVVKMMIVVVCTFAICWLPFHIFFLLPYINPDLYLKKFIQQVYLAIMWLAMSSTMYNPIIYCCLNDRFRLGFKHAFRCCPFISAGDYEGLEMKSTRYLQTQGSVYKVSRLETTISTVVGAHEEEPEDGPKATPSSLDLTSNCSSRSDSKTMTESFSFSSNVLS

[3] = molecular target: T1, dipeptidyl peptidase IV (DPP-IV) (Homo sapiens, UniProt P27487); test: DPP-IV activity assay with chromogenic substrate Gly-Pro-pNA in HSA solutions; format: biochemical; conditions: 1 mM diprotin A pre-incubated 15 minutes at 37° C.; Gly-Pro-pNA 1 mM; 24 hour incubation at 37° C.
T1 construct: the Cohn manufacturing process which isolates other plasma components such as DPP-IV; tissue CSL Behring LLC; Grifols Biologicals Inc; Octapharma USA Inc. (5% HSA products that contain the enzyme); host or cells: human plasma (Cohn fractionation; commercial 5% HSA solution)
T1 sequence (P27487 39-766 limits assumed): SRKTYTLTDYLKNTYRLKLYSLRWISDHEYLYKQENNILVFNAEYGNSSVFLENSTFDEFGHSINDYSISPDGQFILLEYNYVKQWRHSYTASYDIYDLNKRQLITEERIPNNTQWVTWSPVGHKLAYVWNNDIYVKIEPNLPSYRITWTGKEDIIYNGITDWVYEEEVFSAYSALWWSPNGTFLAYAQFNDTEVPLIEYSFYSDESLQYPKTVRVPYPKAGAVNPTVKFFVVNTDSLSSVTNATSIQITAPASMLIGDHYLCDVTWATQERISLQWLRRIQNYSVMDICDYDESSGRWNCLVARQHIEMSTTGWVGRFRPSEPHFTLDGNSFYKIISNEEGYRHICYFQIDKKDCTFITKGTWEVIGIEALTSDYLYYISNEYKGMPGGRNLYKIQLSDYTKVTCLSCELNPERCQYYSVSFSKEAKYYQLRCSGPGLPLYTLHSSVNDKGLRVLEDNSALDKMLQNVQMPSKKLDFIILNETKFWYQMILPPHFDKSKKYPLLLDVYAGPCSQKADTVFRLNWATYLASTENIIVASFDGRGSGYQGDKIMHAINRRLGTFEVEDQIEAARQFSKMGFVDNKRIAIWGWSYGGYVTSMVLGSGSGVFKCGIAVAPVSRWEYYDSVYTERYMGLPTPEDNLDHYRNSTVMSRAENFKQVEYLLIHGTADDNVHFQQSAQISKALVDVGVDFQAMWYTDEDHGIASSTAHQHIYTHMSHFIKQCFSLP
Protocol: DPP-IV activity was assayed by using a chromogenic substrate, Gly-Pro-pNA, as described in E. Nemoto, S. Sugawara, H. Takada, et al., Increase of CD26/dipeptidyl peptidase IV expression on human gingival fibroblasts upon stimulation with cytokines and bacterial components. […] All reactions were carried out in DPP-IV assay buffer (pH 7.6) consisting of 0.1M HEPES, 0.12M NaCl, 5 mM KCl, 8 mM glucose, and 10 mg/ml bovine serum albumin (BSA). 5% commercial HSA, recombinant HSA, or buffer blank (0.9% NaCl) were combined with 1 mM Gly-Pro-pNA (DPP-IV substrate) in assay buffer or assay buffer only (−CON). Incubations were performed at 37° C. or 60° C. for 2-24 hours. For DPP-IV inhibition studies, 1 mM diprotin A in assay buffer was pre-incubated with the HSA solutions for 15 minutes at 37° C. prior to DPP-IV substrate addition. All incubations were read at 405 nm (SpectraMax M2 spectrophotometer, Molecular Devices LLC, Sunnyvale, Calif., USA). Each reading at 405 nm was corrected by subtracting the A405 for the DPP-IV substrate-containing incubation from the corresponding A405 for the −CON incubation for each HSA solution tested.
The amount of pNA produced in μM was calculated based on the pNA molar extinction coefficient in HEPES buffer (see R. Lottenberg, C. M. Jackson, Solution composition dependent variation in extinction coefficients for p-nitroaniline. Biochim Biophys Acta 742 (1983) 558-64). […] Groups were compared using a two tailed students' T-test with a significance level at p<0.05. All data is reported as mean±SD.
Dipeptidyl peptidase IV (DPP-IV) activity was assessed in commercial preparations of human serum albumin (HSA). […] The resulting liberation of a chromogen, pNA, was measured spectrophotometrically at 405 nm.

[4] = molecular target: T2, DPP-IV (Homo sapiens, UniProt P27487); test: DA-DKP formation in 5% commercial HSA heated at 60° C., <5 kDa fraction by LCMS; format: biochemical
T2 construct: the Cohn manufacturing process which isolates other plasma components such as DPP-IV; tissue CSL Behring LLC; Grifols Biologicals Inc; Octapharma USA Inc. (5% HSA products that contain the enzyme); host or cells: human plasma (Cohn fractionation; commercial 5% HSA solution)
T2 sequence (P27487 39-766 limits assumed): as above
Protocol: For the analysis of DA-DKP formation, an aliquot was added to a microcentrifugal filter (Vivaspin 2, MWCO 5,000, Sartorius Stedim Biotech, Goettingen, Germany). Filters were centrifuged at 3,500 rpm for 30 minutes at room temperature. The <5 kDa fraction was collected and transferred to a separate, storage tube for LCMS analysis.
Each <5 kDa fraction & DA-DKP synthetic standard (20-2000 ng/mL) were spiked with 0.01 mM L-Tryptophan-d5 (indole-d5) which was used as an internal standard. 50 μL was injected into a strong anion exchange column (Spherisorb, S5 SAX 250 mm×4.0 mm, Waters, Milford, Mass., USA) connected to high performance liquid chromatography (HPLC, Waters 2795 Separations Module, Milford, Mass., USA) coupled to a mass spectrometer (LCT-TOF, Micromass, UK). […]
The output of the HPLC was split 1:20 (v/v) and injected into the mass spectrometer using negative electrospray ionization (−ESI) with a scan range of 80 to 1000 m/z, cone voltage of 30 eV, source temperature of 100° C., and gas temperature of 300° C. DA-DKP was measured by monitoring [M]=185, which corresponds to DA-DKP minus a single proton (—H+). The straight chain of DA-DKP, Asp-Ala, can also be analyzed with this method by monitoring [M]=203.
The formation of the DKP, DA-DKP, was measured in a commercial HSA solution heated at 60° C. in the presence or absence of a known DPP-IV inhibitor (diprotin A). […]

Q: For CC1NC(=O)C(CC(=O)O)NC1=O (centres unmarked) [DA-DKP, 3-methyl-2,5-diketopiperazine-6-acetic acid], which Immunosuppressive effects [1] is on record?
A: immunosuppressive effects

Q: For CC(=O)N[C@@H](Cc1c[nH]c2ccccc12)C(=O)O [NAT, N-acetyl-tryptophan], which “Antagonism of the neurokinin-1 receptor” value [2] is on record?
A: well-known antagonist

Q: Which results are given for Ile-Pro-Ile [diprotin A]?
A: DPP-IV activity in commercial HSA in the presence of DPP-IV inhibitor [3]: completely suppressed; also recorded: complete suppression of DPP-IV activity; also recorded: abolished; Decrease of amount of DA-DKP produced with inhibitor ([4]; 24 hour period, commercial HSA): ~3 fold; Increase in DA-DKP production in the presence of the DPP-IV inhibitor ([4]; 24 hours, 5% commercial HSA plus diprotin A): 10%
